How the values were obtained:
[1] = Potentiation of theophylline transdermal permeation in pig ear skin at pH 7 by Franz diffusion cells method; assay type: ADME, Sus scrofa; conditions: artificial membrane
[2] = Potentiation of theophylline transdermal permeation in pig ear skin by Franz diffusion cells method; assay type: ADME, cell-based, Sus scrofa; conditions: artificial membrane

Row | SMILES | Activity [1] | Activity [2]
1 | CCCCCCCCCCCCCCCOC(=O)CCN.Cl | Active | –
2 | CCCCCCOC(=O)CCCCCCCCCCCN.Cl | Active | –
3 | CCCCCCCCCCCCCCCOC(=O)CCN | Not Active | Active
4 | CCCCCCCCCCCCCCOC(=O)CCCN | Not Active | Active
5 | CCCCCCCCCCCCCCOC(=O)CCCN.Cl | Active | –
6 | CCCCCCCCCCCCCOC(=O)CCCCN.Cl | Active | –
7 | CCCCCCCCCCCCOC(=O)CCCCCN.Cl | Active | Active
8 | CCCCCCCCCCCOC(=O)CCCCCCN.Cl | Active | Active

The remaining lines, values ahead:

Row | Activity [1] | Activity [2] | SMILES
9 | Not Active | Active | CCCCCCCCCCOC(=O)CCCCCCCN
10 | Not Active | Active | CCCCCCCCOC(=O)CCCCCCCCCN
11 | Active | Active | CCCCCCCCCCOC(=O)CCCCCCCN.Cl
12 | Active | – | CCCCCCCCOC(=O)CCCCCCCCCN.Cl
13 | Not Active | Active | CCCCCCOC(=O)CCCCCCCCCCCN
14 | Not Active | Active | CCCCCCCCCCCCCOC(=O)CCCCN
15 | Not Active | Active | CCCCCCCCCCCCOC(=O)CCCCCN
16 | Not Active | Active | CCCCCCCCCCCOC(=O)CCCCCCN

— ChEMBL document CHEMBL1158552, “Transkarbams as transdermal permeation enhancers: effects of ester position and ammonium carbamate formation” (Bioorg Med Chem Lett, 2010)
